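48-hour exposure; five concentrations; linearly interpolated endpoints. At the GI50, growth is halved.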 Calls of active or inactive are those of the source. Rule as the data show it: active = GI50 up to about 1.1 µM and inactive = higher.
Experiments:
Assay in all cases: NCI tumour cell line growth inhibition, 48 h
[1] = test system: MDA-N
[2] = test system: HCT-15
[3] = test system: Malme-3M
[4] = test system: MDA-MB-231
[5] = test system: MCF7
[6] = test system: NCI-H23
[7] = test system: ACHN
[8] = test system: 786-0
[9] = test system: PC-3
[10] = test system: SK-MEL-5
[11] = test system: OVCAR-3
[12] = test system: UO-31
[13] = test system: TK-10
[14] = test system: HOP-62
[15] = test system: NCI/ADR-RES
[16] = test system: SF-539
[17] = test system: BT-549
[18] = test system: T47D
[19] = test system: OVCAR-4
[20] = test system: OVCAR-5
[21] = test system: SR
[22] = test system: NCI-H522
[23] = test system: SW-620
[24] = test system: SK-OV-3
[25] = test system: HT-29
[26] = test system: NCI-H226
[27] = test system: HL-60
[28] = test system: UACC-257
[29] = test system: SNB-75
[30] = test system: A549
[31] = test system: SF-268
[32] = test system: SF-295
[33] = test system: CCRF-CEM
[34] = test system: EKVX
[35] = test system: M14
[36] = test system: SK-MEL-28
[37] = test system: U-251
[38] = test system: DU-145
[39] = test system: OVCAR-8
[40] = test system: A498
[41] = test system: HCT-116
[42] = test system: COLO 205
[43] = test system: Hs-578T
[44] = test system: SNB-19
[45] = test system: SN12C
[46] = test system: IGROV-1
[47] = test system: NCI-H460
[48] = test system: CAKI-1
[49] = test system: KM12
[50] = test system: MOLT-4
[51] = test system: HCC 2998
[52] = test system: RXF 393
[53] = test system: K562
[54] = test system: UACC-62
[55] = test system: RPMI-8226
[56] = test system: LOX IMVI
[57] = test system: MDA-MB-435

With NNc1ncnc2cccc(Cl)c12 as the compound, how does the GI50 [1] read?
Its GI50 is > 100 µM (inactive).

And the GI50 [2]?
The GI50 was greater than 100 µM.

What about the GI50 [3] of the same compound?
The GI50 was 2.02 µM (inactive).

What about the GI50 [4] of the same compound?
Its GI50 is > 100 µM (inactive).

And the GI50 [5]?
The GI50 was > 100 µM (inactive).

What about the GI50 [6] of the same compound?
Its GI50 is > 100 µM (inactive).

And the GI50 [7]?
Its GI50 is > 100 µM (inactive).

And the GI50 [8]?
Its GI50 is > 100 µM (inactive).

And the GI50 [9]?
Its GI50 is > 100 µM (inactive).

And the GI50 [10]?
The GI50 was > 100 µM (inactive).

What about the GI50 [11] of the same compound?
Its GI50 is > 100 µM (inactive).

And the GI50 [12]?
Its GI50 is > 100 µM (inactive).

And the GI50 [13]?
The GI50 was > 100 µM (inactive).

And the GI50 [14]?
Its GI50 is > 100 µM (inactive).

What about the GI50 [15] of the same compound?
The GI50 was > 100 µM (inactive).

And the GI50 [16]?
The GI50 was > 100 µM (inactive).

And the GI50 [17]?
The GI50 was > 100 µM (inactive).

What about the GI50 [18] of the same compound?
The GI50 was > 100 µM (inactive).

And the GI50 [19]?
The GI50 was > 100 µM (inactive).

What about the GI50 [20] of the same compound?
Its GI50 is > 100 µM (inactive).

What about the GI50 [21] of the same compound?
The GI50 was > 100 µM (inactive).

And the GI50 [22]?
Its GI50 is > 100 µM (inactive).

What about the GI50 [23] of the same compound?
Its GI50 is > 100 µM (inactive).

And the GI50 [24]?
The GI50 was > 100 µM (inactive).

What about the GI50 [25] of the same compound?
Its GI50 is > 100 µM (inactive).

What about the GI50 [26] of the same compound?
The GI50 was > 100 µM (inactive).

And the GI50 [27]?
Its GI50 is > 100 µM (inactive).

And the GI50 [28]?
Its GI50 is > 100 µM (inactive).

What about the GI50 [29] of the same compound?
The GI50 was > 100 µM (inactive).

And the GI50 [30]?
The GI50 was > 100 µM (inactive).

What about the GI50 [31] of the same compound?
The GI50 was > 100 µM (inactive).

And the GI50 [32]?
The GI50 was > 100 µM (inactive).

What about the GI50 [33] of the same compound?
Its GI50 is > 100 µM (inactive).

What about the GI50 [34] of the same compound?
The GI50 was 17.8 µM (inactive).

What about the GI50 [35] of the same compound?
Its GI50 is > 100 µM (inactive).

And the GI50 [36]?
The GI50 was > 100 µM (inactive).

What about the GI50 [37] of the same compound?
Its GI50 is > 100 µM (inactive).

What about the GI50 [38] of the same compound?
Its GI50 is > 100 µM (inactive).

And the GI50 [39]?
Its GI50 is > 100 µM (inactive).

And the GI50 [40]?
Its GI50 is > 100 µM (inactive).

What about the GI50 [41] of the same compound?
The GI50 was > 100 µM (inactive).

What about the GI50 [42] of the same compound?
Its GI50 is > 100 µM (inactive).

What about the GI50 [43] of the same compound?
The GI50 was > 100 µM (inactive).

And the GI50 [44]?
Its GI50 is > 100 µM (inactive).

What about the GI50 [45] of the same compound?
Its GI50 is > 100 µM (inactive).

And the GI50 [46]?
Its GI50 is > 100 µM (inactive).

And the GI50 [47]?
The GI50 was > 100 µM (inactive).

And the GI50 [48]?
Its GI50 is > 100 µM (inactive).

And the GI50 [49]?
Its GI50 is > 100 µM (inactive).

And the GI50 [50]?
Its GI50 is > 100 µM (inactive).

And the GI50 [51]?
The GI50 was > 100 µM (inactive).

And the GI50 [52]?
Its GI50 is > 100 µM (inactive).

And the GI50 [53]?
Its GI50 is > 100 µM (inactive).

What about the GI50 [54] of the same compound?
Its GI50 is > 100 µM (inactive).

How did the GI50 [1] turn out when COc1cc2c(cc1OC)C(=O)C1(C2)[C@H](c2ccccc2)C2C(=O)c3cc(OC)c(OC)cc3C2[C@H]1c1ccccc1 (stereo not given in full) was run?
The GI50 was > 100 µM (inactive).

What about the GI50 [2] of the same compound?
The GI50 was greater than 100 µM.

What about the GI50 [3] of the same compound?
Its GI50 is > 100 µM (inactive).

What about the GI50 [4] of the same compound?
The GI50 was > 100 µM (inactive).

What about the GI50 [6] of the same compound?
The GI50 was > 100 µM (inactive).

What about the GI50 [7] of the same compound?
Its GI50 is 25.8 µM (inactive).

What about the GI50 [8] of the same compound?
The GI50 was > 100 µM (inactive).

And the GI50 [55]?
Its GI50 is > 100 µM (inactive).

And the GI50 [9]?
The GI50 was > 100 µM (inactive).

What about the GI50 [10] of the same compound?
The GI50 was > 100 µM (inactive).

And the GI50 [11]?
Its GI50 is > 100 µM (inactive).

What about the GI50 [12] of the same compound?
Its GI50 is > 100 µM (inactive).

And the GI50 [13]?
The GI50 was > 100 µM (inactive).

And the GI50 [14]?
Its GI50 is > 100 µM (inactive).

What about the GI50 [56] of the same compound?
The GI50 was > 100 µM (inactive).

And the GI50 [15]?
The GI50 was > 100 µM (inactive).

What about the GI50 [16] of the same compound?
The GI50 was > 100 µM (inactive).

And the GI50 [17]?
Its GI50 is > 100 µM (inactive).

And the GI50 [18]?
The GI50 was 10.5 µM (inactive).

What about the GI50 [19] of the same compound?
The GI50 was > 100 µM (inactive).

What about the GI50 [20] of the same compound?
The GI50 was > 100 µM (inactive).

What about the GI50 [21] of the same compound?
Its GI50 is > 100 µM (inactive).

And the GI50 [22]?
Its GI50 is > 100 µM (inactive).

And the GI50 [23]?
Its GI50 is > 100 µM (inactive).

What about the GI50 [24] of the same compound?
Its GI50 is > 100 µM (inactive).

And the GI50 [25]?
The GI50 was > 100 µM (inactive).

What about the GI50 [26] of the same compound?
The GI50 was > 100 µM (inactive).

And the GI50 [27]?
The GI50 was > 100 µM (inactive).

And the GI50 [28]?
The GI50 was > 100 µM (inactive).

What about the GI50 [29] of the same compound?
The GI50 was 24.8 µM (inactive).

And the GI50 [30]?
Its GI50 is 31 µM (inactive).

What about the GI50 [31] of the same compound?
Its GI50 is > 100 µM (inactive).

What about the GI50 [32] of the same compound?
Its GI50 is > 100 µM (inactive).

What about the GI50 [33] of the same compound?
Its GI50 is > 100 µM (inactive).

And the GI50 [34]?
Its GI50 is > 100 µM (inactive).

And the GI50 [35]?
The GI50 was > 100 µM (inactive).

And the GI50 [36]?
Its GI50 is > 100 µM (inactive).

And the GI50 [37]?
Its GI50 is > 100 µM (inactive).

What about the GI50 [38] of the same compound?
Its GI50 is > 100 µM (inactive).

And the GI50 [57]?
The GI50 was > 100 µM (inactive).

What about the GI50 [39] of the same compound?
The GI50 was > 100 µM (inactive).

What about the GI50 [40] of the same compound?
Its GI50 is > 100 µM (inactive).

What about the GI50 [41] of the same compound?
Its GI50 is > 100 µM (inactive).

What about the GI50 [42] of the same compound?
Its GI50 is > 100 µM (inactive).

What about the GI50 [43] of the same compound?
The GI50 was > 100 µM (inactive).

What about the GI50 [44] of the same compound?
Its GI50 is > 100 µM (inactive).

What about the GI50 [45] of the same compound?
The GI50 was > 100 µM (inactive).

And the GI50 [46]?
Its GI50 is > 100 µM (inactive).

What about the GI50 [47] of the same compound?
Its GI50 is 49.1 µM (inactive).

And the GI50 [48]?
The GI50 was 0.259 µM (active).

And the GI50 [49]?
The GI50 was > 100 µM (inactive).

What about the GI50 [50] of the same compound?
Its GI50 is > 100 µM (inactive).

And the GI50 [51]?
Its GI50 is > 100 µM (inactive).

What about the GI50 [52] of the same compound?
Its GI50 is 63.5 µM (inactive).

What about the GI50 [53] of the same compound?
The GI50 was > 100 µM (inactive).

What about the GI50 [54] of the same compound?
The GI50 was > 100 µM (inactive).
